Data reported in publication PMC8237038 (Acta Pharmacologica Sinica, 2021).
Each block holds one compound with its values, some of them ahead of it.

Experiments:
CYP3A [1] = target: T1, CYP3A (Homo sapiens, UniProt P08684); test: in vitro; conditions: microsomes
CYP3A [2] = target: T1, CYP3A; conditions: for inhibitory effects against CYP3A: microsomes
CYP3A [3] = test: in vitro; conditions: human, human liver microsomes, pH 7.4, probe testosterone (6β-hydroxylation)
[4] = Pharmacokinetic interactions between HEJG and lopinavir in rats; conditions: lopinavir in rat plasma; for AUC(0-inf) / Cmax: male, Sprague-Dawley, rat, plasma, po, 160 mg/kg
[5] = pH 7.4, Time-dependent inhibition IC50 Preincubation for 3 min
[6] = pH 7.4, Time-dependent inhibition IC50 Preincubation for 33 min
[7] = HEJG (3 g/kg, i.g.) + lopinavir (160 mg/kg, i.g.)
[8] = Water + lopinavir (160 mg/kg, i.g.), control group

T1 sequence (P08684 2-503): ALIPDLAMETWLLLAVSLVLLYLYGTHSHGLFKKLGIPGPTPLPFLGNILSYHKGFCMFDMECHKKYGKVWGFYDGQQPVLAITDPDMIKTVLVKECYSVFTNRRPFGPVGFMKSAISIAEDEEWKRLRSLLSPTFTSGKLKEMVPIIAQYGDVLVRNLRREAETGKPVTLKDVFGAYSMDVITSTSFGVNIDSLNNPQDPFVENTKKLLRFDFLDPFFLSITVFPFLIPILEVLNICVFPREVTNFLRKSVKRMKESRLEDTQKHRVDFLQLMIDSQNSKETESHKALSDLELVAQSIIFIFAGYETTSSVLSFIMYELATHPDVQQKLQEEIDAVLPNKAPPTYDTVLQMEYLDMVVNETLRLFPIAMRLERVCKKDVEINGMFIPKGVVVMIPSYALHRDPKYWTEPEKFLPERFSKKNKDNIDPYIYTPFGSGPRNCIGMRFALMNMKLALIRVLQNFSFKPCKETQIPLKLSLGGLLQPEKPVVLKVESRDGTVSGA

Structure (SMILES): O=C(O)/C=C/c1ccc(O)c(O)c1 [Caffeic acid]
- inhibitory effects against CYP3A (CYP3A [2]): weak inhibitory effects
- IC50 (CYP3A [1]; [5]): > 100 µM
- IC50 (CYP3A [1]; [6]): > 100 µM

Structure (SMILES): Cc1cccc(C)c1OCC(=O)N[C@@H](Cc1ccccc1)[C@@H](O)C[C@H](Cc1ccccc1)NC(=O)[C@H](C(C)C)N1CCCNC1=O [lopinavir]
- t1/2 [4, 7]: 2.68 ± 0.45 h
- AUC(0-inf) [4, 7]: 10200 ± 1570 ng·h/mL
- AUC(0-inf) [4, 8]: 4190 ± 131 ng·h/mL
- Cmax [4, 7]: 1860 ± 215 ng/mL
- Cmax [4, 8]: 1280 ± 55 ng/mL

Structure (SMILES): O=c1c(O)c(-c2ccc(O)c(O)c2)oc2cc(O)cc(O)c12 [Quercetin]
- IC50 (CYP3A [3]): 3.95 ± 0.31 µM

The remaining lines, values ahead:

- IC50 shift (CYP3A [1]; pH 7.4): 2.01
- IC50 (CYP3A [1]; [5]): 13.1 ± 1.29 µM
- IC50 (CYP3A [1]; [6]): 6.53 ± 0.31 µM
Structure (SMILES): O=c1c(O)c(-c2ccc(O)cc2)oc2cc(O)cc(O)c12 [Kaempferol]

- Ratio (CYP3A [2]; constituents, IC50 3 min / 33 min preincubation): 3.20
- IC50 (CYP3A [3]; Time-dependent inhibition IC50 Preincubation for 3 min, constituents, HLMs, 3 min preincubation): 25.9 ± 3.19 µM
- IC50 (CYP3A [3]; Time-dependent inhibition IC50 Preincubation for 33 min, constituents, HLMs, 33 min preincubation): 8.08 ± 0.56 µM
Structure (SMILES): COc1cc(O)ccc1/C=C/C(=O)c1ccc(O)cc1 [Echinatin]

- inhibitory effects against CYP3A (CYP3A [2]): weak inhibitory effects
- IC50 (CYP3A [1]; [5]): > 100 µM
- IC50 (CYP3A [1]; [6]): > 100 µM
Structure (SMILES): O=C(/C=C/c1ccc(O)c(O)c1)O[C@@H]1C[C@](O)(C(=O)O)C[C@@H](O)[C@H]1O [Chlorogenic acid]
